Source: ChEMBL document CHEMBL3507680, “University of Dundee, Gates Library screen for HepG2 cell viability”

Assay: Human HepG2 cell viability assay in 384 well format
Assay type: toxicity, cell-based
Design: dose 125 nL, time 70.5 hour; concentration not given beside the values
Settings: HepG2 cells, read-out: Inhibition

Row | Compound | cytotoxicity at 70.5 h
1 | COC(=O)c1ccc2c(-c3ccnc(NCCO)n3)c[nH]c2c1 | -1.71%
2 | COCC(=O)NCC[C@H]1CC(C)(C)Oc2ccc(OC)cc21 | -2.28%
3 | Cc1csc2ncc(-c3ccnc(N4CCCC4)n3)c(=O)n12 | -2.62%
4 | CC[C@H](C)Nc1ncc(-c2cccc(NC(=O)CNC)c2)cn1 | -0.898%
5 | O=C1CN(CC2CC2)Cc2nc(NCc3ccccc3)sc21 | 20.7%
6 | COc1ccc(C(=O)NC2CC2)c(OC2CCN(C(C)CO)CC2)c1 (stereo not drawn) | 0.736%
7 | CCC(=O)c1ccc(OCC(=O)NCC2CC(CC)=NO2)cc1 (stereo not drawn) | -1.34%
8 | COCCN(Cc1ccc(C)cc1)Cc1c[nH]cn1 | -7.56%
9 | CC(C)=CCC1(CO)CCCN(S(C)(=O)=O)C1 (stereo not drawn) | 1.79%
10 | CN1C(=O)[C@H]2CC[C@@H]1CN(S(=O)(=O)c1ccc(Cl)cc1Cl)C2 | -10.4%
11 | O=C(NCCO)c1coc(Cn2cnc3ccccc32)n1 | -1.94%
12 | COCCN(Cc1nccs1)C(=O)c1cc(-c2ccc(C)s2)n[nH]1 | -5.54%
13 | Clc1cc(NCc2ccncc2)nc2[nH]ccc12 | 13%
14 | O=C(CCc1nc(Cl)n[nH]1)N1C[C@@H](CN2CCCCC2)[C@@H](CO)C1 | -6.93%
15 | O=C(CCN1C[C@H]2CC[C@@H]1CN(c1ncccn1)C2)NCc1ccco1 | 27.5%
16 | CC(O)C1CCN(C(=O)Nc2nc(-c3ccccc3)ns2)CC1 (stereo not drawn) | 4.55%
17 | COc1cc2[nH]c(=O)c(CN3CCC[C@@H]3C(N)=O)cc2c(OC)c1OC | 23.4%
18 | CS(=O)(=O)c1ncc(CN2CCCC(C(N)=O)C2)n1CC1CCCCC1 (stereo not drawn) | -1.8%
19 | COc1ccnc(N2Cc3cnc(C(C)(C)C)nc3C2)n1 | 0.551%
20 | CC(=O)N1CCC(Oc2ccc(Cl)cc2C(=O)N2CCCO2)CC1 | -3.91%
21 | CCOc1ccc(CN2CC[C@](C)(O)C(C)(C)C2)cn1 | -1.38%
22 | CCCc1cc(CNC2CCN(c3cc(C(C)C)nc(C)n3)CC2)on1 | -4.25%
23 | CCCN1CCC(CC(=O)N2CC(C)(C)[C@@](C)(O)C2)CC1 | -2.11%
24 | Cn1ccnc1CN1CCN(Cc2ccncc2)[C@@H]2CS(=O)(=O)C[C@@H]21 | -13.6%
25 | CCc1ncc(CN2CCCC3(CCC(=O)N(CCC(C)C)C3)C2)cn1 (stereo not drawn) | 1.46%
26 | Cc1cccc(CN(Cc2ccccc2)Cc2nccs2)n1 | -11.1%

Row | Compound | cytotoxicity at 70.5 h
27 | CCc1nnsc1-c1nc(C(C)C)nn1-c1ccc2c(c1)OCO2 | -5.86%
28 | COCC(=O)N1CCN(S(=O)(=O)c2ccccc2)[C@H]2CS(=O)(=O)C[C@H]21 | -7.41%
29 | Cc1ccccc1C1CCN(CCNC(=O)CS(C)(=O)=O)C1 (stereo not drawn) | -4.32%
30 | CC(C)c1cc(C(=O)N2C[C@H]3CC[C@@H]2CN(Cc2cscn2)C3)no1 | 15.2%
31 | O=C(O)c1cn(CC2CCCN(c3nc4ccccc4s3)C2)nn1 (stereo not drawn) | 20.3%
32 | CC(C)(O)CCc1cccc(C(=O)NCC2CN(S(C)(=O)=O)CCO2)c1 (stereo not drawn) | 10.1%
33 | Cc1cccc(C(=O)N2CCCC(c3nccn3Cc3cscn3)C2)n1 (stereo not drawn) | -5.05%
34 | Cc1ncccc1Oc1ncnc(N2CCC(O)(CO)CC2)c1C | -6.21%
35 | NC1(C(=O)NCC2CCCN(Cc3cccc4nonc34)C2)CCC1 (stereo not drawn) | -3.66%
36 | CC(C)=CCN1CCN(C(=O)CSc2ccccn2)[C@H]2CS(=O)(=O)C[C@H]21 | -8.43%
37 | Cc1nc(C(C)C)sc1C(=O)NCCSc1ccccn1 | -11.3%
38 | O=C1N(CCc2ccccc2)CCCC1(O)CNCc1ccc(F)cc1 (stereo not drawn) | 6.09%
39 | CC(=O)N1C[C@H]2CNC[C@@]2(C(=O)NCCNc2ccncc2C)C1 | -0.521%
40 | CC(C)c1cc(N2CCC3(CCN(C)C3)C2)ncn1 (stereo not drawn) | 3.25%
41 | Cc1cc(C)n(CC(C)NC2CCN(Cc3cccc(O)c3)CC2)n1 (stereo not drawn) | -7.84%
42 | COc1ccccc1OC1(C(=O)O)CCN(c2ncnc(C)c2C)CC1 | 17.6%
43 | COc1cccc(CN2CCCCC2CN2CCOCC2)c1F (stereo not drawn) | -2.15%
44 | Cc1ccccc1OCC(=O)N1CCOC2(CNCCOC2)C1 (stereo not drawn) | -5.6%
45 | Cc1ccccc1OC1CCN(C(=O)c2c[nH]c(=O)[nH]c2=O)CC1 | -0.618%
46 | CCN1CC(CN(C)Cc2nc(-c3ccoc3)oc2C)CC1=O (stereo not drawn) | 0.925%
47 | COCCn1cncc1CN1CCCC(C)(c2ccccc2)C1 (stereo not drawn) | 18%
48 | COc1ccc(F)cc1NC(=O)NCC1(C)COC1 | 0.338%
49 | CCC(C)N1CCC(Oc2ccc(C(=O)NCCN(C)C)cc2Cl)CC1 (stereo not drawn) | -5.39%
50 | COC[C@@]12CC[C@@H](N3CCOCC3)C[C@H]1CCN(c1ncccc1F)C2 | -6.47%
51 | Cc1cc(CN2CCN(CC3CC3)[C@@H]3CS(=O)(=O)C[C@@H]32)cc(C)c1O | -2.43%
52 | O=c1cc(N2CCCCC2)cnn1CC(O)C(F)(F)F (stereo not drawn) | -8.52%

Row | Compound | cytotoxicity at 70.5 h
53 | Cc1ncsc1CCN(C)Cc1ccc(CO)o1 | -5.5%
54 | CSCCc1c(-c2ccccc2)ncn1[C@H]1C[C@@H](C(=O)O)N(C)C1 | -13.3%
55 | CNc1ncc(CN(C)Cc2cc(O)c3cccc(Cl)c3n2)cn1 | -15.2%
56 | CSc1ccccc1CN1C[C@H]2CC[C@@H]1CN(Cc1[nH]cnc1C)C2 | 17.6%
57 | Cc1cc(C(=O)N2CCC3(CCC(=O)N(CC(N)=O)C3)CC2)ccc1O | -14%
58 | CS(=O)(=O)NCC1CCN(Cc2cc3ccccc3[nH]c2=O)C1 (stereo not drawn) | -3.86%
59 | O=C1CC2(CCCC2)CC(=O)N1CCn1cnnc1 | -8.05%
60 | COCCN(CC1CCCN(C2Cc3ccccc3C2)C1)C(=O)COC (stereo not drawn) | -7.6%
61 | Cc1cccc(CC(=O)N2CCCC(N(C)CCCN(C)C)C2)c1 (stereo not drawn) | -4.84%
62 | COCCCNc1ncnc2c1CCN(C(=O)CC1C=CCC1)CC2 (stereo not drawn) | -5.04%
63 | Cc1cccn2c(CNC(C)CCc3ccc(O)cc3)cnc12 (stereo not drawn) | -7.78%
64 | CC(C)[C@H]1CN(c2ccncc2)C[C@@H]1NC(=O)C1(C#N)CCOCC1 | -8.3%
65 | O=C(O)C1(n2ccc(-c3ccco3)n2)CCN(Cc2cccs2)CC1 | 17.7%
66 | O=C(c1cc(=O)[nH][nH]1)N1CCCC2(CCC(=O)N(C3CCCC3)C2)C1 (stereo not drawn) | -5.45%
67 | CC(C)c1nccn1CCCNC(=O)c1ccc(-c2cn[nH]c2)nc1 | -3.19%
68 | Cc1cccc(CN2CCN(C(=O)N(C)C)[C@@H]3CS(=O)(=O)C[C@@H]32)n1 | 2.11%
69 | O=C1NC(C(=O)NCc2cccnc2Oc2ccccc2F)CO1 (stereo not drawn) | -18.5%
70 | Cc1noc(CN(C)CC2CCCN(CCc3ccc(Cl)cc3)C2)n1 (stereo not drawn) | -11.4%
71 | COCCc1noc(-c2cn(Cc3ccccc3C)nn2)n1 | -4.41%
72 | CC(C)CC(NC(=O)c1cc(-c2cccn2C)n[nH]1)c1ncnn1C (stereo not drawn) | -1.67%
73 | O=C(C1CCC1)N1C[C@@H]2CC[C@H](C1)N(S(=O)(=O)c1ccccc1)C2 | -8.37%
74 | CC(C)NC(=O)Nc1ccc(-c2nc3c([nH]2)CCNC3)cc1 | -15.8%
75 | CNc1nccc(-c2cn(C)nc2C)n1 | 1.94%
76 | CCOc1cccc(CN(Cc2cnn(C)c2)CC(C)C)c1O | 7.39%
77 | O=c1cc(N2CCCC2)cnn1Cc1noc(C2CCCO2)n1 (stereo not drawn) | 7.8%
78 | CNS(=O)(=O)c1ccc(CN2CCCN(CC(C)C)CC2)cc1 | -0.0493%
